Experimental data from ChEMBL document CHEMBL1136837, “Unified QSAR approach to antimicrobials. 4. Multi-target QSAR modeling and comparative multi-distance study of the giant components of antiviral drug-drug complex networks” (Bioorg Med Chem, 2009).
Starred links: 1 amine or outer side, 2 acyl side, 3 side chain; linkers in the order of their positions; H or OH if unused. Non-standard residues stand in square brackets, D forms with d. Residues, ends and D or L forms follow the SMILES beside them. *: point of attachment. Hyp(2-Ph-quinolin-4-yl) = O=C(O)[C@@H]1C[C@@H](Oc2cc(-c3ccccc3)nc3ccccc23)CN1; Hyp(quinolin-4-yl) = O=C(O)[C@@H]1C[C@@H](Oc2ccnc3ccccc23)CN1; Acca(2-Et,1R,2R) = CC[C@@H]1C[C@]1(N)C(=O)O; NH(1S-phenylpropyl) = CC[C@H](N*)c1ccccc1; NH(1R-phenylethyl) = C[C@@H](N*)c1ccccc1; Dip = N[C@H](C(=O)O)C(c1ccccc1)c1ccccc1; CH2(1-naphthyl) = c1ccc2c(C*)cccc2c1; Hyp = O=C(O)[C@@H]1C[C@@H](O)CN1; X8 = CCCN(N*)C(=O)NN(C)c1ccccc1; azaNva = CCCN(N[*:1])C(=O)[*:2]; Cha = N[C@@H](CC1CCCCC1)C(=O)O; X2 = C[C@H](N*)c1cccc2ccccc12; Chg = N[C@H](C(=O)O)C1CCCCC1; NH(CH2)3Ph = c1ccc(CCCN*)cc1; NHPhenethyl = c1ccc(CCN*)cc1; X3 = C[C@H](N*)c1ccc(Br)cc1; X5 = c1ccc2c(c1)CC[C@@H]2N*; X9 = C[C@H](N*)c1nnn[nH]1; X6 = c1ccc2c(c1)CC(N*)C2; X7 = C[C@H](N*)C1CCCCC1; Ac3c = NC1(C(=O)O)CC1; NHBn = c1ccc(CN*)cc1; X1 = Clc1ccccc1CCN*; X4 = C1CCC(CCN*)CC1; Bn = c1ccc(C*)cc1

How the values were obtained:
Human betaherpesvirus 5 = assay: Antiviral activity against Human cytomegalovirus; type: functional, organism-based
Hepatitis C virus = assay: Antiviral activity against Hepatitis C virus; type: functional, organism-based, Hepacivirus hominis
[1] = system: Human immunodeficiency virus 1; assay: Antiviral activity against HIV1; type: functional, organism-based

Compound	IC50 (Human betaherpesvirus 5; Human betaherpesvirus 5)	IC50 (Hepatitis C virus; Hepatitis C virus)	also measured
CC(C)Oc1ccc(NC(=O)N2CCC[C@H]2C(=O)N2CC[C@H]3[C@H]2[C@H](C)C(=O)N3C(=O)C2CC2)cc1	180 nM		
C[C@@H]1C(=O)N(C(=O)C2CC2)[C@H]2CCN(C(=O)[C@@H]3CCCN3C(=O)Nc3cccc(Cl)c3)[C@H]12	650 nM		
C[C@@H]1C(=O)N(C(=O)C2CC2)[C@H]2CCN(C(=O)[C@@H]3CCCN3C(=O)c3ccc(Cl)cc3)[C@H]12	1400 nM		
C[C@@H]1C(=O)N(C(=O)C2CC2)[C@H]2CCN(C(=O)[C@@H]3CCCN3C(=O)Nc3cccc4ccccc34)[C@H]12	650 nM		
CCCc1nn([C@H]2C[C@H](O)[C@@H](CO)S2)c(=O)[nH]c1=O	40000 nM		
COc1ccc2c(O[C@@H]3C[C@H]4C(=O)N[C@]5(C(=O)O)C[C@H]5/C=C\CCCCC[C@H](NC(=O)OC(C)(C)C)C(=O)N4C3)cc(-c3csc(NC(C)=O)n3)nc2c1		4.8 nM	
CC(C)Oc1cccc(S(=O)(=O)N2CCC[C@H]2C(=O)N2CC[C@H]3[C@H]2[C@H](C)C(=O)N3C(=O)C2CC2)c1	65000 nM		
Cc1c(C(=O)N2CCC[C@H]2C(=O)N2CC[C@H]3[C@H]2[C@H](C)C(=O)N3C(=O)C2CC2)sc2ccc(Cl)cc12	190 nM		
C[C@@H]1C(=O)N(C(=O)C2CC2)[C@H]2CCN(C(=O)[C@@H]3CCCN3C(=O)Nc3ccc(Cl)cc3)[C@H]12	260 nM		
C[C@@H]1C(=O)N(C(=O)C2CC2)[C@H]2CCN(C(=O)[C@@H]3CCCN3S(=O)(=O)c3ccc4ccccc4c3)[C@H]12	190 nM		
C[C@@H]1C(=O)N(C(=O)C2CC2)[C@H]2CCN(C(=O)[C@@H]3CCCN3C(=O)Nc3ccccc3)[C@H]12	1400 nM		
COc1ccc2c(O[C@@H]3C[C@H]4C(=O)N[C@]5(C(=O)O)C[C@H]5/C=C\CCCCC[C@H](NC(=O)OC(C)(C)C)C(=O)N4C3)cc(-c3csc(N)n3)nc2c1		5.5 nM	
C[C@@H]1C(=O)N(C(=O)C2CC2)[C@H]2CCN(C(=O)[C@@H]3CCCN3C(=O)c3cccc4ccccc34)[C@H]12	890 nM		
COc1ccc2c(O[C@@H]3C[C@H]4C(=O)N[C@]5(C(=O)O)C[C@H]5/C=C\CCCCC[C@H](NC(=O)OC(C)(C)C)C(=O)N4C3)cc(-n3cnc(C)c3)nc2c1		14 nM	
CNc1nc(-c2cc(O[C@@H]3C[C@H]4C(=O)N[C@]5(C(=O)O)C[C@H]5/C=C\CCCCC[C@H](NC(=O)OC(C)(C)C)C(=O)N4C3)c3ccc(OC)cc3n2)cs1		6.4 nM	
CCCCCCCCCCCCCCCCCCOCCCOP(=O)(O)CO[C@H](CO)Cn1ccc(N)nc1=O	0.03 nM		
O[C@@H]1[C@H](O)[C@@H](n2c(Cl)nc3cc(Cl)c(Cl)cc32)O[C@H]1C(F)(F)F	450 nM		
COc1c(C#N)c2cc(Cl)c(Cl)cc2n1[C@H]1C[C@H](O)[C@@H](CO)O1	68000 nM		IC50 [1]: 90000 nM
N#Cc1c(Cl)n([C@@H]2O[C@H](CN=[N+]=[N-])[C@@H](O)[C@H]2O)c2cc(Cl)c(Cl)cc12	3000 nM		IC50 [1]: 15000 nM
COc1c(C=O)c2cc(Cl)c(Cl)cc2n1[C@H]1C[C@H](O)[C@@H](CO)O1	100000 nM		IC50 [1]: 100000 nM
CCCOc1ccc(NC(=O)N2CCC[C@H]2C(=O)N2CC[C@H]3[C@H]2[C@H](C)C(=O)N3C(=O)C2CC2)cc1	210 nM		
OC[C@H]1O[C@@H](n2c(Cl)nc3cc(Cl)c(Cl)cc32)[C@H](O)[C@@H]1O	3200 nM		
CC(=O)c1c(Br)n([C@H]2C[C@H](O)[C@@H](CO)O2)c2cc(Cl)c(Cl)cc12	340 nM		

Compound	IC50 (Human betaherpesvirus 5; Human betaherpesvirus 5)	IC50 (Hepatitis C virus; Hepatitis C virus)	also measured
CC(=O)N[C@@H](CC(=O)O)C(=O)N[C@@H](CCC(=O)O)C(=O)N[C@H](C(=O)N[C@@H](CCC(=O)O)C(=O)N[C@@H](CC1CCCCC1)C(=O)N[C@@H](CS)C(=O)NCc1ccccc1)C(c1ccccc1)c1ccccc1 (Ac-DE[Dip]E[Cha]C-NHBn)		250 nM	
CC(=O)N[C@@H](CC(=O)O)C(=O)N[C@@H](CCC(=O)O)C(=O)N[C@H](C(=O)N[C@@H](CCC(=O)O)C(=O)N[C@@H](CC1CCCCC1)C(=O)N[C@@H](CS)C(=O)NCCc1ccccc1)C(c1ccccc1)c1ccccc1 (Ac-DE[Dip]E[Cha]C-NHPhenethyl)		7 nM	
CC(=O)N[C@@H](CC(=O)O)C(=O)N[C@@H](CCC(=O)O)C(=O)N[C@H](C(=O)N[C@@H](CCC(=O)O)C(=O)N[C@@H](CC1CCCCC1)C(=O)N[C@@H](CS)C(=O)NCCc1ccccc1Cl)C(c1ccccc1)c1ccccc1 (Ac-DE[Dip]E[Cha]C-X1)		2 nM	
CC(=O)N[C@@H](CC(=O)O)C(=O)N[C@@H](CCC(=O)O)C(=O)N[C@H](C(=O)N[C@@H](CCC(=O)O)C(=O)N[C@@H](CC1CCCCC1)C(=O)N[C@@H](CS)C(=O)NCCC1CCCCC1)C(c1ccccc1)c1ccccc1 (Ac-DE[Dip]E[Cha]C-X4)		1540 nM	
CC(=O)N[C@@H](CC(=O)O)C(=O)N[C@@H](CCC(=O)O)C(=O)N[C@H](C(=O)N[C@@H](CCC(=O)O)C(=O)N[C@@H](CC1CCCCC1)C(=O)N[C@@H](CS)C(=O)NC1Cc2ccccc2C1)C(c1ccccc1)c1ccccc1 (Ac-DE[Dip]E[Cha]C-X6)		1700 nM	
CC(=O)N[C@@H](CC(=O)O)C(=O)N[C@@H](CCC(=O)O)C(=O)N[C@H](C(=O)N[C@@H](CCC(=O)O)C(=O)N[C@@H](CC1CCCCC1)C(=O)N[C@@H](CS)C(=O)NCCCc1ccccc1)C(c1ccccc1)c1ccccc1 (Ac-DE[Dip]E[Cha]C-{NH(CH2)3Ph})		210 nM	
CCCN(NC(=O)[C@@H]1C[C@@H](OCc2ccccc2)CN1C(=O)[C@@H](NC(=O)[C@@H](NC(=O)[C@@H](CCC(=O)O)NC(=O)[C@H](CC(=O)O)NC(C)=O)[C@@H](C)CC)C(C)C)C(=O)NN(C)c1ccccc1 (Ac-D[dE]IV[Hyp](Bn)-X8)		480 nM	
CCCN(NC(=O)[C@@H]1C[C@@H](OCc2ccccc2)CN1C(=O)[C@@H](NC(=O)[C@@H](NC(=O)[C@@H](CCC(=O)O)NC(=O)[C@H](CC(=O)O)NC(C)=O)[C@@H](C)CC)C(C)C)C(=O)N[C@@H](C)c1cccc2ccccc12 (Ac-D[dE]IV[Hyp](Bn)[azaNva]-X2)		490 nM	
CCCN(NC(=O)[C@@H]1C[C@@H](OCc2ccccc2)CN1C(=O)[C@@H](NC(=O)[C@@H](NC(=O)[C@@H](CCC(=O)O)NC(=O)[C@H](CC(=O)O)NC(C)=O)[C@@H](C)CC)C(C)C)C(=O)N[C@@H](C)c1ccc(Br)cc1 (Ac-D[dE]IV[Hyp](Bn)[azaNva]-X3)		72 nM	
CCCN(NC(=O)[C@@H]1C[C@@H](OCc2ccccc2)CN1C(=O)[C@@H](NC(=O)[C@@H](NC(=O)[C@@H](CCC(=O)O)NC(=O)[C@H](CC(=O)O)NC(C)=O)[C@@H](C)CC)C(C)C)C(=O)N[C@H]1CCc2ccccc21 (Ac-D[dE]IV[Hyp](Bn)[azaNva]-X5)		100 nM	
CCCN(NC(=O)[C@@H]1C[C@@H](OCc2ccccc2)CN1C(=O)[C@@H](NC(=O)[C@@H](NC(=O)[C@@H](CCC(=O)O)NC(=O)[C@H](CC(=O)O)NC(C)=O)[C@@H](C)CC)C(C)C)C(=O)N[C@@H](C)C1CCCCC1 (Ac-D[dE]IV[Hyp](Bn)[azaNva]-X7)		420 nM	
CCCN(NC(=O)[C@@H]1C[C@@H](OCc2ccccc2)CN1C(=O)[C@@H](NC(=O)[C@@H](NC(=O)[C@@H](CCC(=O)O)NC(=O)[C@H](CC(=O)O)NC(C)=O)[C@@H](C)CC)C(C)C)C(=O)N[C@@H](C)c1nnn[nH]1 (Ac-D[dE]IV[Hyp](Bn)[azaNva]-X9)		860 nM	
CCCN(NC(=O)[C@@H]1C[C@@H](OCc2ccccc2)CN1C(=O)[C@@H](NC(=O)[C@@H](NC(=O)[C@@H](CCC(=O)O)NC(=O)[C@H](CC(=O)O)NC(C)=O)[C@@H](C)CC)C(C)C)C(=O)N[C@H](C)c1ccccc1 (Ac-D[dE]IV[Hyp](Bn)[azaNva]-{NH(1R-phenylethyl)})		4300 nM	
CCCN(NC(=O)[C@@H]1C[C@@H](OCc2ccccc2)CN1C(=O)[C@@H](NC(=O)[C@@H](NC(=O)[C@@H](CCC(=O)O)NC(=O)[C@H](CC(=O)O)NC(C)=O)[C@@H](C)CC)C(C)C)C(=O)N[C@@H](CC)c1ccccc1 (Ac-D[dE]IV[Hyp](Bn)[azaNva]-{NH(1S-phenylpropyl)})		440 nM	
CC(=O)N[C@H](C(=O)N[C@H](C(=O)N1C[C@H](Oc2cc(-c3ccccc3)nc3ccccc23)C[C@H]1C(=O)NC1(C(=O)O)CC1)C(C)C)C1CCCCC1 (Ac-[Chg]V[Hyp(2-Ph-quinolin-4-yl)][Ac3c]-OH)		370 nM	
CC[C@@H]1C[C@]1(NC(=O)[C@@H]1C[C@@H](Oc2cc(-c3ccccc3)nc3ccccc23)CN1C(=O)[C@@H](NC(=O)[C@@H](NC(C)=O)C1CCCCC1)C(C)C)C(=O)O (Ac-[Chg]V[Hyp(2-Ph-quinolin-4-yl)][Acca(2-Et,1R,2R)]-OH)		13 nM	
CC(=O)N[C@H](C(=O)N[C@H](C(=O)N1C[C@H](Oc2ccnc3ccccc23)C[C@H]1C(=O)NC1(C(=O)O)CC1)C(C)C)C1CCCCC1 (Ac-[Chg]V[Hyp(quinolin-4-yl)][Ac3c]-OH)		2200 nM	
CC(=O)N[C@H](C(=O)N[C@H](C(=O)N1C[C@H](OCc2cccc3ccccc23)C[C@H]1C(=O)NC1(C(=O)O)CC1)C(C)C)C1CCCCC1 (Ac-[Chg]V[Hyp](CH2(1-naphthyl))[Ac3c]-OH)		4000 nM	
CCCC1(CC(=O)O)OCCc2c1[nH]c1c(F)ccc(C#N)c21 (single isomer, unassigned)		5200 nM	
O=C(O)[C@H](Cc1ccccc1)N(Cc1ccc(-c2nccs2)cc1)C(=O)c1ccc(Cl)cc1Cl (stereo in doubt; form 1)			IC50 (Hepatitis C virus): 620 nM
O=C(O)[C@H](Cc1ccccc1)N(Cc1ccc(-c2nccs2)cc1)C(=O)c1ccc(Cl)cc1Cl (stereo in doubt; form 2)			IC50 (Hepatitis C virus): 5700 nM
C[C@@H]1C(=O)N(C(=O)C2CC2)[C@H]2CCN(C(=O)[C@@H]3CCCN3S(=O)(=O)c3ccc(Cl)cc3)[C@H]12 (stereo in doubt; form 2)			IC50 (Human betaherpesvirus 5): 840 nM
